According to US20230233545A1, “TREATMENT OF ATRIAL DYSFUNCTION” (MyoKardia, Inc., priority 2020, published 2023):
Marks after values point to notes of the source that are not given here.

Experiments:
[1] = Pharmacokinetics in patients with stable HFrEF; format: in vivo; conditions: human, oral
Protocol: In the single-ascending dose trial, single fasting doses of Compound I 175-550 mg or placebo were evaluated in a crossover manner in 12 patients over two sequential cohorts (1 and 2), with intervals between singles doses ranging from 3 days (subsequently amended to 5) to 14 days. In Cohort 1, eight patients were enrolled and all received placebo and Compound I 175 mg and 350 mg (in random sequence and in a blinded fashion) during three periods, A-C. Six patients elected to continue into a fourth optional open label period D. Compound I doses administered in the open-label period included: 350 mg (n=1); 450 mg (divided into two administrations; n=1); 525 mg (n=2); and 550 mg (divided into two administrations; n=2). In Cohort 2, four patients were enrolled, and all received placebo and Compound I 400 mg and 500 mg in random sequence (both active 400 mg and 500 mg doses were divided into two administrations).
For each treatment period, pre-dose assessments followed by administration of single dose were performed on Day 1 in the morning. The patient underwent serial pharmacokinetic (PK), pharmacodynamic (PD [trans-thoracic echocardiography or TTE]), ECG and safety laboratory assessments through Day 1 (until the evening) as well as on Day 2. Patients were discharged on Day 3 morning and returned to the clinic on Day 4 for a final PK assessment, and evaluation of adverse events (AEs). […]

[2] = system: patients with stable HFrEF; assay: Multiple-ascending dose trial, TTE left atrial parameters; format: in vivo, human
Description: This example describes a study to establish the effect on left atrial dimensions and function of single- and multiple-ascending oral doses of Compound I in ambulatory patients with stable heart failure with reduced ejection fraction (HFrEF). Key eligibility criteria included stable HFrEF of ischemic or nonischemic origin, treated with guideline-directed medical therapy (EF initial requirement during Screening was 20 to 45%, and was later changed by amendment to 15 to 35%). Subjects with active ischemia or severe or valvular heart disease were excluded.
The clinical trial enrolled patients who were 18-80 years of age with a clinical diagnosis of stable chronic heart failure with an LV ejection fraction (LVEF) on echocardiography of 45% or less (subsequently amended to ≤35%), treated with guideline-directed medical therapy, and with good quality echocardiogram images. […] Patients with current or recent AF were also excluded. Detailed inclusion and exclusion criteria are shown below.
This was a randomized, parallel-group, DB, placebo-controlled, adaptive design, sequential ascending (oral) multiple-dose study in stable patients with heart failure. Four MAD Cohorts (A, B, C, D) were enrolled (FIG. 7B). An SRC reviewed results from each cohort and determined the dose and confirmed initial sample size for the subsequent cohort. Additionally, the first 3 patients in each cohort had LVEF>25%; the SRC reviewed preliminary safety data from these patients and decided whether to open cohort enrollment to patients with LVEF<25%.
In Cohort A, Compound I 75 mg twice daily (BID) or matching placebo was administered after a 2-hour fast, and food was not allowed for the following 2 hours. In Cohorts B, C and D, patients received Compound I 50, 75 and 100 mg BID, respectively, with food (Table 5).
Patients were admitted to a clinical research unit for 11 days and underwent 3 consecutive study periods: (1) an initial single-blind placebo run-in period of 2 days (Days 1-2); (2) a randomized (1:3) double-blind treatment period in which patients received 7 days of placebo or Compound I, administered orally twice daily (from Day 3 until Day 9); (3) a follow-up period with patients discharged from the unit on D11, and a final follow-up clinic visit conducted on Day 16. During the 11-day confinement, patients were under continuous supervision.
During the study, multiple evaluations were performed that included: serial TTE assessments (11-14 TTEs per patient on Days 1, 2, 3, 4, 7, 9, 10 and 11); PK sampling (PK sample collected concomitantly with every post-randomization echocardiogram); ECGs (on Days 2, 3, 4, 7, 9, 10, 11 and 16); troponin (collected concomitantly with every post-randomization ECG); and safety laboratory assessments. Confined patients underwent continuous telemetry. Holter monitoring was performed in all patients at baseline (Days 1-2) and at the end of double-blind treatment (Days 7-9). Vital signs were collected daily.

LA skinned muscle fibers = assay: Myocardial force generation, LA skinned muscle fibers (tension-pCa, stiffness); format: biochemical, Yucatan mini-pig; conditions: at 3 μM
Protocol: The ability of Compound I to increase myocardial force generation at a given Ca2+ concentration was evaluated using LA (n=6) and LV (n=6) skinned muscle fibers prepared from three different Yucatan mini-pig hearts. In short, as previously described, 3 hearts were harvested, rinsed and shipped in cold cardioplegia solution (Custodiol® HTK; Essential Pharmaceuticals, LLC, NC, USA). Upon receipt, LV (papillary) and LA muscle fibers were dissected at 4° C. in a high-relaxing solution (100 mM BES, 10 mM EGTA, 6.57 mM MgCl2, 10 mM creatine phosphate, 6.22 mM ATP, 41.89 mM Kprop, 2.5 μM pepstatin, 1 μM leupeptin, 50 μM PMSF, 5 mM NaN3, pH 7.0). Fiber bundles were cut and skinned (in a high-relaxing solution containing 1% Triton X-100), fitted with aluminum foil t-clips, and mounted on a mechanics apparatus (Aurora Scientific Inc., ON, Canada). Sarcomere length was set to 2.0 μm. Steady-state isometric tension and stiffness (via a 3% stretch over 250 ms) were measured at increasing concentrations of Ca^2+ (pCa 8.0 to 4.5, adjusted to maintain 180 mM ionic strength) twice, first in the absence (control, 1% DMSO) and then in the presence of Compound I (3 μM, 1% DMSO). […] Active and passive stiffness were calculated by measuring the slope of the early (Ca^2+ dependent) and late phases, respectively, of the tension response to the brief 3% stretches. […]

[3] = Pharmacokinetics in healthy volunteers; conditions: human, in vivo
[4] = plasma concentrations ≥2000 ng/mL, 'up to', p<0.01

In the case of `Cn1cc(S(=O)(=O)[C@@](C)(F)C2CCN(C(=O)Nc3ccon3)CC2)c(C(F)F)n1` [Compound I, (R)-4-(1-((3-(difluoromethyl)-1-methyl-1H-pyrazol-4-yl)sulfonyl)-1-fluoroethyl)-N-(isoxazol-3-yl)piperidine-1-carboxamide], the half-life ([1]; in vivo, patients that received Compound I as part of Cohort 1 (single doses)) is reported as 20 to 25 h, the concentration at 7 days ([1]; plasma, 50 mg BID, with food, read-out: steady-state concentration) is reported as 2000 to 3500 ng/mL and the “safety and tolerability of drug dosages and exposures tested” value ([2]; current studies) is reported as “safe and are well tolerated”. The “LAminVi, mean change from baseline (placebo-corrected)” value (shortened to “LAminVi, mean change from baseline”) ([2]; plasma concentration 2000-<3500 ng/mL (medium), SE 0.6, p<0.01) was −2.1 mL/m^2, the “LAEF, mean change from baseline (placebo-corrected)” value (“LAEF, mean change from baseline” below) ([2]; plasma concentration 2000-<3500 ng/mL (n = 26, medium), SE 1.3, p<0.05) was 3.3% and the “LAmaxVi, mean change from baseline (placebo-corrected)” value (shortened to “LAmaxVi, mean change from baseline”) ([2]; plasma concentration 2000-<3500 ng/mL, SE 0.7) was −1.1 mL/m^2. The “MR jet area/LA area ratio, mean change from baseline (placebo-corrected)” value (“MR jet area/LA area ratio, mean change” below) ([2]; plasma concentration 2000-<3500 ng/mL, SE 1.3) was −0.6%, the “LAEF, mean change from baseline” value ([2]; plasma concentration <2000 ng/mL (n = 30), LS mean difference, SE 1.2, baseline 41 (8)) was 2.1% and the “LAminVi, mean change from baseline” value ([2]; plasma concentration <2000 ng/mL, SE 0.6, baseline 17 (7), p<0.01) was −1.8** mL/m^2. For the same compound, the “LAmaxVi, mean change from baseline” value ([2]; plasma concentration <2000 ng/mL, SE 0.6, baseline 28 (9)) was −1.2 mL/m^2, the “MR jet area/LA area ratio, mean change” value ([2]; plasma concentration <2000 ng/mL, SE 1.2, baseline 8.7 (10.5)) was 0.3% and the “LAFI, mean change from baseline (placebo-corrected)” value ([2]; plasma concentration <2000 ng/mL, SE 1.5, baseline 26 (13)) was 2.6. The “LAminVi, mean change from baseline” value ([2]; plasma concentration ≥3500 ng/mL (high), SE 0.7, p<0.01) was −2.4 mL/m^2, the “LAEF, mean change from baseline” value ([2]; plasma concentration ≥3500 ng/mL (n = 13, high), SE 1.6, p<0.05) was 3.6% and the “LAmaxVi, mean change from baseline” value ([2]; plasma concentration ≥3500 ng/mL, SE 0.8) was −1.3 mL/m^2. For the same compound, the “MR jet area/LA area ratio, mean change” value ([2]; plasma concentration ≥3500 ng/mL, SE 1.6, p<0.05) was −4.2* %, the “decrease in LA minimal volume index compared with placebo” value [2, 4] was “up to −2.4 mL/m2” and the “increase in LA function index compared with placebo” value [2, 4] was “up to 6.1”. The “passive stiffness, atrial skinned fibers” value (LA skinned muscle fibers) was “without altering passive stiffness”, the “maximal force-generation capability, atrial skinned fibers” value (LA skinned muscle fibers; data not shown) was “without altering” and the Tmax [3] was 4 to 6 h. It also gave a half-life [3] of ~15 h.
